In patent US20250270213A1, “PI3Ka INHIBITORS” (Synnovation Therapeutics, Inc., priority 2022, published 2025):

Tested on: T47D (PIK3CA H1047R) cells
Experiment: pS473 AKT assay with 2.5% FBS, T47D cells
Format: cell-based
Conditions: Homo sapiens, pSer473 AKT, DMEM with 2.5% FBS, 2 h treatment, read-out: T47D_IC50
How it was run: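 T47D (PIK3CA H1047R) cells were switched to DMEM with 2.5% FBS and exposed to compounds for 2 h. After paraformaldehyde fixation, pSer473 AKT was detected by in-cell ELISA (rabbit primary, HRP anti-rabbit secondary, chemiluminescence); IC50 values were fitted from the concentration series.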

| IC50 [nM] | Structure (SMILES) |
| --- | --- |
| < 1000 | Cc1cc(C(C)Nc2ccc(Cl)nc2-c2cn(C)nc2C)c2c(c1)c(=O)n(C)c1c2cnn1C1CCN(C)CC1 (centres unmarked) [Compound 165, 9-[1-[[6-chloro-2-(1,3-dimethylpyrazol-4-yl)-3-pyridyl]amino]ethyl]-4,7-dimethyl-3-(1-methyl-4-piperidyl)pyrazolo[3,4-c]isoquinolin-5-one] |
| < 1000 | CCn1c(=O)c2cc(C)cc(C(C)Nc3ccc(Cl)nc3-c3ncn(C)n3)c2c2cn(C3CCN(CCO)CC3)nc21 (centres unmarked) [Example 203, 9-(1-((6-Chloro-2-(1-methyl-1H-1,2,4-triazol-3-yl)pyridin-3-yl)amino)ethyl)-4-ethyl-2-(1-(2-hydroxyethyl)piperidin-4-yl)-7-methyl-2,4-dihydro-5H-pyrazolo[3,4-c]isoquinolin-5-one] |
| < 1000 | Cc1cc(C(C)Nc2ccc(Cl)nc2-c2cnn(C)c2)c2c(c1)c(=O)n(C)c1c2cnn1C1CCN(C(=O)CN(C)C)CC1 (centres unmarked) [Example 196, 9-(1-((6-chloro-2-(1-methyl-1H-pyrazol-4-yl)pyridin-3-yl)amino)ethyl)-3-(1-(dimethylglycyl)piperidin-4-yl)-4,7-dimethyl-3,4-dihydro-5H-pyrazolo[3,4-c]isoquinolin-5-one] |
| < 1000 | Cc1cc(C(C)Nc2ccc(Cl)nc2-c2ncn(C)n2)c2c(c1)c(=O)n(C)c1c(-c3cccnc3)ncn21 (centres unmarked) [Compound 112, 9-(1-((6-Chloro-2-(1-methyl-1H-1,2,4-triazol-3-yl)pyridin-3-yl)amino)ethyl)-4,7-dimethyl-3-(pyridin-3-yl) imidazo[1,5-a]quinazolin-5(4H)-one] |
| < 1000 | CCn1ncc2c3c(C(C)Nc4ccc(C)nc4-c4ccc(C(=O)NC)c(F)c4)cc(C)cc3c(=O)n(C)c21 (centres unmarked) [Compound 55, 4-(3-((1-(3-ethyl-4,7-dimethyl-5-oxo-4,5-dihydro-3H-pyrazolo[3,4-c]isoquinolin-9-yl)ethyl)amino)-6-methylpyridin-2-yl)-2-fluoro-N-methylbenzamide] |
| < 1000 | CCn1c(=O)c2cc(C)cc(C(C)Nc3ccc(Cl)nc3-c3ccc(=O)n(C)c3)c2c2cnn([C@H]3CCOC3)c21 (stereo partly drawn) [Example 219, 9-(1-((6-chloro-1′-methyl-6′-oxo-1′,6′-dihydro-[2,3′-bipyridin]-3-yl)amino)ethyl)-4-ethyl-7-methyl-3-((S)-tetrahydrofuran-3-yl)-3,4-dihydro-5H-pyrazolo[3,4-c]isoquinolin-5-one] |
| < 1000 | CCn1c(=O)c2cc(C)cc(C(C)Nc3ccc(Cl)nc3-c3ncn(C)n3)c2c2cn(C3CCN(C)CC3)nc21 (centres unmarked) [Example 201, 9-(1-((6-Chloro-2-(1-methyl-1H-1,2,4-triazol-3-yl)pyridin-3-yl)amino)ethyl)-4-ethyl-7-methyl-2-(1-methylpiperidin-4-yl)-2,4-dihydro-5H-pyrazolo[3,4-c]isoquinolin-5-one] |
| < 1000 | Cc1cc(C(C)Nc2ccc(Cl)nc2-c2ncn(C)n2)c2c(c1)c(=O)n1c3c2cnn3C(CN(C)C)CC1 (centres unmarked) [Example 290, 10-(1-((6-Chloro-2-(1-methyl-1H-1,2,4-triazol-3-yl)pyridin-3-yl)amino)ethyl)-3-((dimethylamino)methyl)-8-methyl-4,5-dihydro-3H,6H-2,2a,5a-triazaaceanthrylen-6-one] |
| < 1000 | CCc1nn2c3c4c(cc(C)cc4c(=O)n(C)c13)C(Nc1ccc(C)nc1-c1ccncc1)C2 (centres unmarked) [Compound 40, 2-Ethyl-3,6-dimethyl-8-((6-methyl-[2,4′-bipyridin]-3-yl)amino)-8,9-dihydrobenzo[de]pyrazolo[4,5,1-ij][1,7]naphthyridin-4(3H)-one] |
| < 1000 | CCn1ncc2c3c(C(C)Nc4ccc(Cl)nc4-c4ccc(C(=O)O)cc4)cc(C)cc3c(=O)n(C)c21 (centres unmarked) [Compound 47, 4-(6-chloro-3-((1-(3-ethyl-4,7-dimethyl-5-oxo-4,5-dihydro-3H-pyrazolo[3,4-c]isoquinolin-9-yl)ethyl)amino)pyridin-2-yl) benzoic acid] |
| < 1000 | CCn1ncc2c3c(C(C)Nc4ccc(Cl)nc4-c4ccncc4F)cc(C)cc3c(=O)n(C)c21 (centres unmarked) [Compound 45, 9-(1-((6-chloro-3′-fluoro-[2,4′-bipyridin]-3-yl)amino)ethyl)-3-ethyl-4,7-dimethyl-3,4-dihydro-5H-pyrazolo[3,4-c]isoquinolin-5-one] |
| < 1000 | CCN1CCC(n2ncc3c4c(C(C)Nc5ccc(Cl)nc5-c5ncn(C)n5)cc(C)cc4c(=O)n(C)c32)C1 (centres unmarked) [Compound 137, 9-(1-((6-chloro-2-(1-methyl-1H-1,2,4-triazol-3-yl)pyridin-3-yl)amino)ethyl)-3-(1-ethylpyrrolidin-3-yl)-4,7-dimethyl-3,4-dihydro-5H-pyrazolo[3,4-c]isoquinolin-5-one] |
| < 1000 | Cc1cc(C(C)Nc2ccccc2C(=O)O)c2c(c1)c(=O)n(C)c1nn(-c3cncnc3)cc21 (centres unmarked) [Compound I-30, 2-((1-(4,7-Dimethyl-5-oxo-2-(pyrimidin-5-yl)-4,5-dihydro-2H-pyrazolo[3,4-c]isoquinolin-9-yl)ethyl)amino)benzoic acid] |
| < 1000 | Cc1cc(C(C)Nc2ccc(Cl)nc2-c2ncn(C)n2)c2c(c1)c(=O)n(C)c1c2cnn1C1CCN(C(=O)c2ccnn2C)CC1 (centres unmarked) [Example 195, 9-(1-((6-chloro-2-(1-methyl-1H-1,2,4-triazol-3-yl)pyridin-3-yl)amino)ethyl)-4,7-dimethyl-3-(1-(1-methyl-1H-pyrazole-5-carbonyl)piperidin-4-yl)-3,4-dihydro-5H-pyrazolo[3,4-c]isoquinolin-5-one] |
| < 1000 | Cc1cc(C(C)Nc2ccc(Cl)nc2C2CCN(C)CC2)c2c(c1)c(=O)n(C)c1c2cnn1CCO (centres unmarked) [Example 257, 9-[1-[[6-Chloro-2-(1-methyl-4-piperidyl)-3-pyridyl]amino]ethyl]-3-(2-hydroxyethyl)-4,7-dimethyl-pyrazolo[3,4-c]isoquinolin-5-one] |
| < 1000 | CCn1c(=O)c2cc(C)cc(C(C)Nc3ccc(Cl)nc3-c3ncn(C)n3)c2c2cnn(C3CCN(CCO)C3)c21 (centres unmarked) [Compound 145, 9-(1-((6-Chloro-2-(1-methyl-1H-1,2,4-triazol-3-yl)pyridin-3-yl)amino)ethyl)-4-ethyl-3-(1-(2-hydroxyethyl)pyrrolidin-3-yl)-7-methyl-3,4-dihydro-5H-pyrazolo[3,4-c]isoquinolin-5-one] |
| < 1000 | Cc1cc(C(C)Nc2ccc(Cl)nc2-c2ncn(C)n2)c2c(c1)c(=O)n(C)c1c2cnn1C1CCCN(CCO)C1 (centres unmarked) [Example 278, 9-[1-[[6-chloro-2-(1-methyl-1,2,4-triazol-3-yl)-3-pyridyl]amino]ethyl]-3-[1-(2-hydroxyethyl)-3-piperidyl]-4,7-dimethyl-pyrazolo[3,4-c]isoquinolin-5-one] |
| < 1000 | CCn1ncc2c3c(C(C)Nc4ccc(Cl)nc4N4CCN(C(C)=O)CC4)cc(C)cc3c(=O)n(C)c21 (centres unmarked) [Compound 80, 9-(1-((2-(4-Acetylpiperazin-1-yl)-6-chloropyridin-3-yl)amino)ethyl)-3-ethyl-4,7-dimethyl-3,4-dihydro-5H-pyrazolo[3,4-c]isoquinolin-5-one] |
| < 1000 | Cc1cc(C(CO)Nc2ccc(Cl)nc2-c2cnn(C)c2C)c2c(c1)c(=O)n1c3c2cnn3CCC1 (centres unmarked) [Compound 330, 10-(1-((6-chloro-2-(1,5-dimethyl-1H-pyrazol-4-yl)pyridin-3-yl)amino)-2-hydroxyethyl)-8-methyl-4,5-dihydro-3H,6H-2,2a,5a-triazaaceanthrylen-6-one] |
| < 1000 | COc1cc(-c2nc(Cl)ccc2NC(C)c2cc(C)cc3c(=O)n4c5c(cnn5CCC4)c23)ccn1 (centres unmarked) [Compound 312, 10-(1-((6-chloro-2′-methoxy-[2,4′-bipyridin]-3-yl)amino)ethyl)-8-methyl-4,5-dihydro-3H,6H-2,2a,5a-triazaaceanthrylen-6-one] |
| < 1000 | Cc1cc(C(C)Nc2ccc(Cl)nc2-c2ccc(C#N)cc2F)c2c(c1)c(=O)n(C)c1c(C(=O)N(C)C)ncn21 (centres unmarked) [Compound 125, 9-(1-((6-chloro-2-(4-cyano-2-fluorophenyl)pyridin-3-yl)amino)ethyl)-N,N,4,7-tetramethyl-5-oxo-4,5-dihydroimidazo[1,5-a]quinazoline-3-carboxamide] |
| < 1000 | Cc1cc(C(C)Nc2ccc(Cl)nc2-c2cnn(C)c2)c2c(c1)c(=O)n(C)c1c(C(=O)N3CC(O)C3)ncn21 (centres unmarked) [Compound 122, 9-(1-((6-chloro-2-(1-methyl-1H-pyrazol-4-yl)pyridin-3-yl)amino)ethyl)-3-(3-hydroxyazetidine-1-carbonyl)-4,7-dimethylimidazo[1,5-a]quinazolin-5(4H)-one] |
| < 1000 | CCn1c(=O)c2cc(C)cc(C(C)Nc3ccc(Cl)nc3-c3noc(=O)[nH]3)c2c2cnn([C@H]3CCOC3)c21 (stereo partly drawn) [Example 215, 3-(6-chloro-3-((1-(4-ethyl-7-methyl-5-oxo-3-((S)-tetrahydrofuran-3-yl)-4,5-dihydro-3H-pyrazolo[3,4-c]isoquinolin-9-yl)ethyl)amino)pyridin-2-yl)-1,2,4-oxadiazol-5(4H)-one] |
| < 1000 | Cc1cc(C(C)Nc2ccc(Cl)nc2-c2ccnc(C)c2)c2c(c1)c(=O)n1c3c2cnn3CCC1 (centres unmarked) [Compound 306, 10-(1-((6-chloro-2′-methyl-[2,4′-bipyridin]-3-yl)amino)ethyl)-8-methyl-4,5-dihydro-3H,6H-2,2a,5a-triazaaceanthrylen-6-one] |
| < 1000 | Cc1cc(C(C)Nc2ccc(Cl)nc2-c2ncn(C)n2)c2c(c1)c(=O)n(C)c1c2cnn1C1CN(CC#N)C1 (centres unmarked) [Compound 95, 2-(3-(9-(1-((6-chloro-2-(1-methyl-1H-1,2,4-triazol-3-yl)pyridin-3-yl)amino)ethyl)-4,7-dimethyl-5-oxo-4,5-dihydro-3H-pyrazolo[3,4-c]isoquinolin-3-yl)azetidin-1-yl)acetonitrile] |
| < 1000 | Cc1cc(C(C)Nc2ccc(Cl)nc2-c2cnn(C)c2)c2c(c1)c(=O)n(C)c1c2cnn1C1CCN(CC(F)F)C1 (centres unmarked) [Compound 142, 9-(1-((6-Chloro-2-(1-methyl-1H-pyrazol-4-yl)pyridin-3-yl)amino)ethyl)-3-(1-(2,2-difluoroethyl)pyrrolidin-3-yl)-4,7-dimethyl-3,4-dihydro-5H-pyrazolo[3,4-c]isoquinolin-5-one] |
